# Data taken from patent US10858335B2 (Rigel Pharmaceuticals, Inc., priority 2014, dated 2020).
# Test system: GDF8 signaling (p-SMAD-3 (Ser423/425))
# Experiment: AlphaScreen SureFire SMAD3 (p-Ser423/425) assay, GDF8-stimulated cells (GDF pSMAD)
# Format: cell-based
# Conditions: MPC11; GDF8-stimulated; p-SMAD3 AlphaScreen; read-out: GDF pSMAD (MPC11) (inhibition of GDF8 signaling)
# Excerpt: Biological Example 1: AlphaScreen® SureFire® SMAD3 (p-Ser423/425) Assay
# The p-SMAD-3 (Ser423/425) SureFire® assay has been designed to measure the phosphorylation of endogenous cellular p-SMAD-3 (Ser423/425) in cell lysates and is a system for the screening of both modulators of receptor activation (e.g. agonists and antagonists) as well as agents acting intracellularly, such as small molecule inhibitors of upstream events. The assay will measure p-SMAD-3 (Ser423/425) activation by either cloned or endogenous receptors, and can be applied to primary cells.
# P-SMAD-3 (Ser423/425) SureFire® Assay Protocols
# Step A: Preparation of Buffers
# 1× Lysis buffer: 1 ml of 5× Lysis buffer was diluted with 4 ml of sterile water. After dilution, excess 1× Lysis buffer can be frozen and thawed up to 5 times without loss in activity.
# Activation buffer: The buffer was warmed slowly to 37° C. and gently mixed to re-suspend. Activation buffer can be stored at room temperature with no loss in activity.
# Reaction buffer: The buffer was kept at 4° C. while in use.
# AlphaScreen® Protein A IgG Kit: The kit was stored at 4° C. in the dark.
# Reaction buffer+Activation buffer+AlphaScreen® Acceptor beads: Reaction buffer (40 parts), Activation Buffer (10 parts) and Acceptor beads (1 part) were mixed and the mixture was stored at room temperature and used the same day. Mixture was added to 384-well plates; excess mixture was discarded.
# Dilution buffer+AlphaScreen® Donor beads: Dilution buffer (20 parts) and Donor beads (1 part) were mixed and the mixture was stored at room temperature and used the same day. Excess mixture was discarded.
# Assay control samples: After reconstitution in 250 μl of water, lysates were at −20° C. in single use aliquots.
# Step B: Preparation of Samples and Cells
# 96-well Assay Protocol for 293FT and RMS13 adherent cells can be carried out manually or in high throughput with liquid handling robots.
# The cells (80 μL of cells for 96 well plates) were plated in collagen coated tissue culture plates in RPMI or FreeStyle medium (Invitrogen) and incubated overnight. For manual analysis, 6 plates for GDF8, 6 plates for TGFβ, and optionally 6 plates for AlkSca(ALK5 constitutively active) were used.
# The compound dilution plates were prepared as follows: 12 μL of DMSO was transferred into first column of 96-well plate, and 16 μL of DMSO was transferred into columns 2-12 of the 96-well plate. 12 μL of compound solution was transferred into first column of the DMSO-containing 96-well plate. Three-fold dilution was performed up to column 10 of the DMSO-containing 96-well plate.
# Step C: Treatment and Analysis
# The plate containing cells were treated with compounds for about 10 minutes, and then ligand was added. GDF8 or TGFb was added to plates to stimulate. 293FL cells were stimulated for 90 minutes at 37° C.; and RMS13 cells were stimulated for 60 minutes at 37° C. The medium was then removed from the cells, and 1× Lysis Buffer (about 25 μL) was added and the plate was gently agitated on plate shaker for 5-10 minutes.
# The lysate (5 μL) was then placed into 384-well shallow plates avoiding the generation of bubbles. To this, the Reaction Buffer+Activation Buffer+AlphaScreen® Acceptor beads mixture (5 μL) was added. The plate was sealed with adhesive cover and shielded from light (e.g., with metal foil), and agitated gently on plate shaker for 2 hours at room temperature.
# Dilution buffer+AlphaScreen® Donor beads (2 μL) was then added, and the plate was intubated on the plate shaker for an additional 1½ hours. After completion, the plate was read on Synergy-4 or Enspire plate reader, using AlphaScreen® pSMAD3® settings.
# Representative results for inhibition of GDF8 signaling are shown in Table 2(data=GDF pSMAD (MPC11) (μM)): […]
row,IC50 [nM],SMILES
1,18500,"Cc1cc(-c2ncccc2-c2ccc3ncn(CCCN4CCN(C)CC4)c3c2)ccc1F [Compound 40, 6-(2-(4-Fluoro-3-methylphenyl)pyridin-3-yl)-1-(3-(4-methylpiperazin-1-yl)propyl)-1H-benzo[d]imidazole]"

# Same assay, conditions: Mus musculus, MPC-11, MPC11; GDF8-stimulated; p-SMAD3 AlphaScreen; read-out: GDF pSMAD (MPC11) (inhibition of GDF8 signaling)
row,SMILES,IC50 [nM]
1,"Cc1cc(-c2ncccc2-c2ccc3ncn(CCCO)c3c2)ccc1F [Compound 41, 3-(6-(2-(4-Fluoro-3-methylphenyl)pyridin-3-yl)-1H-benzo[d]imidazol-1-yl)propan-1-ol]",3140
2,"CCOCCCn1cnc2ccc(-c3cccnc3-c3ccc(F)c(C)c3)cc21 [Compound 42, 1-(3-Ethoxypropyl)-6-(2-(4-fluoro-3-methylphenyl)pyridin-3-yl)-1H-benzo[d]imidazole]",10500
3,"CCn1cnc2ccc(-c3cccnc3-c3ccc(F)c(C)c3)cc21 [Compound 46, 1-Ethyl-6-(2-(4-fluoro-3-methylphenyl)pyridin-3-yl)-1H-benzo[d]imidazole]",1730
4,"N#Cc1cccc(-c2ncccc2-c2ccc3nccn3c2)c1 [Compound 51, 3-(3-(Imidazo[1,2-a]pyridin-6-yl)pyridin-2-yl)benzonitrile]",5440
5,"COc1cccc(-c2ncccc2-c2ccc3nccn3c2)c1 [Compound 52, 6-(2-(3-Methoxyphenyl)pyridin-3-yl)imidazo[1,2-a]pyridine]",1400
6,"Cc1cc(-c2ncccc2-c2ccc3[nH]ncc3c2)ccc1F [Compound 63, 5-(2-(4-Fluoro-3-methylphenyl)pyridin-3-yl)-1H-indazole]",142
7,"Fc1ccc(-c2ncccc2-c2ccc3[nH]ncc3c2)cc1 [Compound 66, 5-[2-(4-Fluorophenyl)pyridin-3-yl]-1H-indazole]",1780
8,"Cc1cccc(-c2ncccc2-c2ccc3[nH]ncc3c2)c1 [Compound 68, 5-(2-m-Tolylpyridin-3-yl)-1H-indazole]",186
9,"Fc1ccc(-c2ncccc2-c2ccc3[nH]ncc3c2)c(F)c1 [Compound 70, 5-[2-(2,4-Difluorophenyl)pyridin-3-yl]-1H-indazole]",5700
10,"Cc1cc(C)cc(-c2ncccc2-c2ccc3[nH]ncc3c2)c1 [Compound 71, 5-[2-(3,5-Dimethylphenyl)pyridin-3-yl]-1H-indazole]",7010
11,"Nc1cccc(-c2ncccc2-c2ccc3[nH]ncc3c2)c1 [Compound 75, 5-(2-(3-Aminophenyl)pyridin-3-yl)-1H-indazole]",3470

# Now from value to compound:
row,IC50 [nM],SMILES
1,1620,"CCn1cnc2ccc(-c3cccnc3-c3cccc(C)c3)cc21 [Compound 43, 1-Ethyl-6-(2-m-tolylpyridin-3-yl)-1H-benzo[d]imidazole]"
2,8380,"Cc1cc(-c2ncccc2-c2ccc3ncn(C(C)C)c3c2)ccc1F [Compound 48, 6-(2-(4-Fluoro-3-methylphenyl)pyridin-3-yl)-1-isopropyl-1H-benzo[d]imidazole]"
3,13400,"Fc1ccc(-c2ncccc2-c2ccc3nccn3c2)cc1 [Compound 53, 6-(2-(4-Fluorophenyl)pyridin-3-yl)imidazo[1,2-a]pyridine]"
4,3880,"Fc1ccccc1-c1ncccc1-c1ccc2[nH]ncc2c1 [Compound 61, 5-(2-(2-Fluorophenyl)pyridin-3-yl)-1H-indazole]"
5,804,"Fc1ccc(-c2ncccc2-c2ccc3[nH]ncc3c2)cc1F [Compound 62, 5-(2-(3,4-Difluorophenyl)pyridin-3-yl)-1H-indazole]"
6,840,"c1cnc(-c2ccc3[nH]ncc3c2)c(-c2ccc3[nH]ncc3c2)c1 [Compound 64, 5-(3-(1H-Indazol-5-yl)pyridin-2-yl)-1H-indazole]"
7,2240,"Fc1cccc(-c2ncccc2-c2ccc3[nH]ncc3c2)c1 [Compound 65, 5-[2-(3-Fluorophenyl)pyridin-3-yl]-1H-indazole]"
8,1810,"Fc1cc(F)cc(-c2ncccc2-c2ccc3[nH]ncc3c2)c1 [Compound 67, 5-[2-(3,5-Difluorophenyl)pyridin-3-yl]-1H-indazole]"
9,497,"Cc1ccc(F)c(-c2ncccc2-c2ccc3[nH]ncc3c2)c1 [Compound 73, 5-(2-(2-Fluoro-5-methylphenyl)pyridin-3-yl)-1H-indazole]"
